Legend:
[1] = molecular target: Beta-2 adrenergic receptor (Homo sapiens, UniProt P07550); assay: DRUGMATRIX: Adrenergic beta2 radioligand binding (ligand: [3H] CGP-12177); assay type: cell membranes, Membrane; settings: cho; Not Active = under 50% inhibition at 10 µM
[2] = DRUGMATRIX: Sigma2 radioligand binding (ligand: [3H] Ifenprodil); assay type: cell membranes, Rattus norvegicus, Wistar, Brain, Membrane; settings: Not Active = under 50% inhibition at 10 µM
[3] = molecular target: C-C chemokine receptor type 5 (Homo sapiens, UniProt P51681); assay type: cell membranes, HEK293, Membrane; settings: hek293; also: in other assays of this panel Not Active means under 50% inhibition at 10 µM
Chain of C-C chemokine receptor type 5 (P51681 whole entry): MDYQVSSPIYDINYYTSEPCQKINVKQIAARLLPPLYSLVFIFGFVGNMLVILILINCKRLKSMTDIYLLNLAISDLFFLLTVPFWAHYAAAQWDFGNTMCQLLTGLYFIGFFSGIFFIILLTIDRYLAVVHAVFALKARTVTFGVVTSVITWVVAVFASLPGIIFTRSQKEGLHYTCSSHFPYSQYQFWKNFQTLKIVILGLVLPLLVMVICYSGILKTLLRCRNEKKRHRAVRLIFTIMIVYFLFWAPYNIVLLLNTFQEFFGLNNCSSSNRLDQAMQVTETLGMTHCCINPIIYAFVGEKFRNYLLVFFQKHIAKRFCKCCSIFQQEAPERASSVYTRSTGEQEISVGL

[4] = DRUGMATRIX: Imidazoline I2, Central radioligand binding (ligand: [3H] Idazoxan); assay type: cell membranes, Rattus norvegicus, Wistar, Cerebral cortex, Membrane; settings: Not Active = under 50% inhibition at 10 µM
[5] = molecular target: Insulin receptor (Rattus norvegicus, UniProt P15127); assay type: cell membranes, Wistar, Liver, Membrane; also: in other assays of this panel Not Active means under 50% inhibition at 10 µM
Chain of Insulin receptor (P15127 27-759 limits assumed): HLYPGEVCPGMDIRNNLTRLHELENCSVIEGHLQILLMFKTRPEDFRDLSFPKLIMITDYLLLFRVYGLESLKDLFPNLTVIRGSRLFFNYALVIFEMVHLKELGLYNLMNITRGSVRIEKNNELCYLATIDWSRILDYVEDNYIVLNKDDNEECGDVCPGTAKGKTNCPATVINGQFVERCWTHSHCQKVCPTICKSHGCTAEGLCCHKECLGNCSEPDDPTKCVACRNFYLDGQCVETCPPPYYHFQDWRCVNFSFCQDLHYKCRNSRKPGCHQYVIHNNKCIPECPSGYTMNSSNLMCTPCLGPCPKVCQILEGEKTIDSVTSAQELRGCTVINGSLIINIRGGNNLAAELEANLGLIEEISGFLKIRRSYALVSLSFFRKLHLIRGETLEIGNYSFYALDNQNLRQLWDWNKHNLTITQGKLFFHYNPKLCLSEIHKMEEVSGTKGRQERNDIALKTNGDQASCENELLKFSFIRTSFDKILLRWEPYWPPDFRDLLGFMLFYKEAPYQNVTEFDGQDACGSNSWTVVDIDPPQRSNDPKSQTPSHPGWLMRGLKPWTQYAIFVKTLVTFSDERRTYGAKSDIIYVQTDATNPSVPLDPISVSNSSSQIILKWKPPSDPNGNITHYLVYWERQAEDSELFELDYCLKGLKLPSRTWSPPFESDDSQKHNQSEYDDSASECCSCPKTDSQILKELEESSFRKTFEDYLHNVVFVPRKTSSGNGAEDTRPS
Chain of Insulin receptor (P15127 764-1383 limits assumed): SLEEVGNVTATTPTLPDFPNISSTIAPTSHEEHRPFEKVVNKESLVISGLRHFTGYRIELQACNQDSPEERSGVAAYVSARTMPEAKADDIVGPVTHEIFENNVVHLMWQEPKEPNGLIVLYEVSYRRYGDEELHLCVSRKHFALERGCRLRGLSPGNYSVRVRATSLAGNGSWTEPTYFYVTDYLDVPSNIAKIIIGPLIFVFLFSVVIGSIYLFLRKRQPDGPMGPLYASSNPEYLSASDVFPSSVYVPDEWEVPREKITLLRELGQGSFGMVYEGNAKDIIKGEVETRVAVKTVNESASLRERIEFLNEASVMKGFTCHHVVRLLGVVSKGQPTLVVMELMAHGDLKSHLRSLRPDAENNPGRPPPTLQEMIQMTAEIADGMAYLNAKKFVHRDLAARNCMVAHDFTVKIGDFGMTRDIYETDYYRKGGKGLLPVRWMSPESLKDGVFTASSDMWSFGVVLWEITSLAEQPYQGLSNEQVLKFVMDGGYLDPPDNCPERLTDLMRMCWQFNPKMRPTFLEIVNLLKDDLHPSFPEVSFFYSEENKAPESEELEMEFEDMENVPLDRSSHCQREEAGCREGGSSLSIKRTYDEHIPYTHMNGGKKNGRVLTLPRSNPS

[6] = molecular target: Nitric oxide synthase 1 (Rattus norvegicus, UniProt P29476); assay type: tissue-based, Cerebellum; also: in other assays of this panel Not Active means under 50% inhibition at 10 µM
Chain of Nitric oxide synthase 1 (P29476 whole entry): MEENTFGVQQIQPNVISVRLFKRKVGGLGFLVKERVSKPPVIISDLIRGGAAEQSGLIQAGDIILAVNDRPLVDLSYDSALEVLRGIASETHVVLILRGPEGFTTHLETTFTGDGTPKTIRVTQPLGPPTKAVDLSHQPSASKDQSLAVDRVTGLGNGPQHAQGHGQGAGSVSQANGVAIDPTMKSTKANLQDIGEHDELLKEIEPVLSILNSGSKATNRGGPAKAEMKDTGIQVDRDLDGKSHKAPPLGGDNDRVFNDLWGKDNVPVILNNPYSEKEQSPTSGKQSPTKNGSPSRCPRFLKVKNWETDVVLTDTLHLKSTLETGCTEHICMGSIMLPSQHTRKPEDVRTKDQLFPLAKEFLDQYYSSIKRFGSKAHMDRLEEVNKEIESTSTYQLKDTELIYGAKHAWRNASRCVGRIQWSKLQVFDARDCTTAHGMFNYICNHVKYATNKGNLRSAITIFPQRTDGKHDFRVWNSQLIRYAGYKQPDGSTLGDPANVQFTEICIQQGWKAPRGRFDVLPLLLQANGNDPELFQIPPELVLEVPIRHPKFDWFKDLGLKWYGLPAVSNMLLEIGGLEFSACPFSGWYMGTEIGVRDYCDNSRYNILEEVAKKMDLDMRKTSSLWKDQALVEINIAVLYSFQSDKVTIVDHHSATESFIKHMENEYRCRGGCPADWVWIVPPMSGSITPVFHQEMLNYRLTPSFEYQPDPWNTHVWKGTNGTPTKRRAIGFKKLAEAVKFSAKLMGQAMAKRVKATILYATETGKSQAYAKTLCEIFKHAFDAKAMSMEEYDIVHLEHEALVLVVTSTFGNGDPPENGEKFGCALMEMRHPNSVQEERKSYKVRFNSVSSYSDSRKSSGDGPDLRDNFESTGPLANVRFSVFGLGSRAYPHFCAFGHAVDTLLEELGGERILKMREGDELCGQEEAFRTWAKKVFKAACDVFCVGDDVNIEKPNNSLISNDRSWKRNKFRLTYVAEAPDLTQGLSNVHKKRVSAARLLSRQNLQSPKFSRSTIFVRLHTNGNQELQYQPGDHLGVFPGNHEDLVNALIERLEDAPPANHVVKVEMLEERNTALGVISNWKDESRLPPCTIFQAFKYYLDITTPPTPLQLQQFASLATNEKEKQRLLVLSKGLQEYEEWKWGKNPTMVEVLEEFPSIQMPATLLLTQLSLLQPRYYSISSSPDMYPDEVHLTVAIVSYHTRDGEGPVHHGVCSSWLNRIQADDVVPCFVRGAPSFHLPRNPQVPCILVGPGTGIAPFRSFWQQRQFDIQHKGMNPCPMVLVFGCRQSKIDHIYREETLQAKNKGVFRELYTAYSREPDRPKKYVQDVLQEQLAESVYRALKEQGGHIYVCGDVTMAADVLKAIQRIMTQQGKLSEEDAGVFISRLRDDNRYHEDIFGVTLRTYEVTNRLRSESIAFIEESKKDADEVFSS

[7] = DRUGMATRIX: Potassium Channel [KATP] radioligand binding (ligand: [3H] Glyburide); assay type: cell membranes, Membrane; settings: hit-t15; Not Active = under 50% inhibition at 10 µM
[8] = molecular target: Voltage-gated inwardly rectifying potassium channel KCNH2 (Homo sapiens, UniProt Q12809); settings: hek293; also: in other assays of this panel Not Active means under 50% inhibition at 10 µM
Chain of Voltage-gated inwardly rectifying potassium channel KCNH2 (Q12809 whole entry): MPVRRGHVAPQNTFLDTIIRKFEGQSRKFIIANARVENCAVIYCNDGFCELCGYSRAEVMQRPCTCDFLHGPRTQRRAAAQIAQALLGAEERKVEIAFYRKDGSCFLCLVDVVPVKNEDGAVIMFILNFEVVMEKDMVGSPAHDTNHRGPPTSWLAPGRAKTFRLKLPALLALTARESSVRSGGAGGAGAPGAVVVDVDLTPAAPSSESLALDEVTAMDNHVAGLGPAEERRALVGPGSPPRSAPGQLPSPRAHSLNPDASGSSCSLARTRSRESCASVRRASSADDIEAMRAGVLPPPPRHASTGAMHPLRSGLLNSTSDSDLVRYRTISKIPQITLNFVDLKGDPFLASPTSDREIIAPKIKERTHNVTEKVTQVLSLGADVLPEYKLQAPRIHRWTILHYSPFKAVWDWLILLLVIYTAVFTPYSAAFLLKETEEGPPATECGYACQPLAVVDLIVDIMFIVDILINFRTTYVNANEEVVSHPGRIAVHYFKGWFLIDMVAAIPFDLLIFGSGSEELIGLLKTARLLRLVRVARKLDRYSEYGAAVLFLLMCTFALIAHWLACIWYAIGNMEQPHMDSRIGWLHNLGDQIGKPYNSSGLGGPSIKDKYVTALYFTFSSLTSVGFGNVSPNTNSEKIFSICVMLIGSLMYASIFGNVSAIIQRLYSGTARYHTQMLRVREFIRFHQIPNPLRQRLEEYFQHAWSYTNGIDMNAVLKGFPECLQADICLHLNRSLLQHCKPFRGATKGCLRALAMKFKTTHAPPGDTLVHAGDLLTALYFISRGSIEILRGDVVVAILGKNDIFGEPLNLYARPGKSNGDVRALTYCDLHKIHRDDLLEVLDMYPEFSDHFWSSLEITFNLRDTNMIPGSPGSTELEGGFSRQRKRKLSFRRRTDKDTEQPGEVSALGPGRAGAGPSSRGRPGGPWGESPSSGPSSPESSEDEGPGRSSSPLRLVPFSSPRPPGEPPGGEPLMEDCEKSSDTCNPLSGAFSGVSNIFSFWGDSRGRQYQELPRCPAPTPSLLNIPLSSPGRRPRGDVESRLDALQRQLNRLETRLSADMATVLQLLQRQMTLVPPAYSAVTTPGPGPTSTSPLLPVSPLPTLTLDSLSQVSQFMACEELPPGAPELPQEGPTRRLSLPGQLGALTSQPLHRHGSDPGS

Chain of Beta-2 adrenergic receptor (P07550 whole entry): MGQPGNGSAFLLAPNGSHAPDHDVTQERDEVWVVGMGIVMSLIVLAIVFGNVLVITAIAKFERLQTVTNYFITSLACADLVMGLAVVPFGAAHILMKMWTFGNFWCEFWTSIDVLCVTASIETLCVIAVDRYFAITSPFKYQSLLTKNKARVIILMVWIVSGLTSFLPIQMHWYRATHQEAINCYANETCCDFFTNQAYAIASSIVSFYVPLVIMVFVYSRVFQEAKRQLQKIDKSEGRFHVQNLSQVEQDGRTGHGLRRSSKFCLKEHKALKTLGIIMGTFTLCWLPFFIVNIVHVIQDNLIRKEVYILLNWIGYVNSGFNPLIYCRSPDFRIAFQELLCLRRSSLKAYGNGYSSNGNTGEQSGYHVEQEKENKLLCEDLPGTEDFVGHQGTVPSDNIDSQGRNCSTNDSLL

COc1ccc2c(c1)[C@]13CCCC[C@@H]1[C@H](C2)N(C)CC3 [DEXTROMETHORPHAN]
Not Active: IC50 [1] | IC50 [2] | Ki [2] | IC50 [3] | IC50 [4] | Ki [4] | IC50 [5] | IC50 [6] | IC50 [7] | Ki [7] | IC50 [8] | Ki [8]

CC(=O)Nc1c(I)c(NC(C)=O)c(I)c(C(=O)O)c1I [DIATRIZOIC ACID]
Not Active: IC50 [1] | IC50 [2] | Ki [2] | IC50 [3] | IC50 [4] | Ki [4] | IC50 [5] | IC50 [6] | IC50 [7] | Ki [7] | IC50 [8] | Ki [8]

COP(=O)(OC)OC=C(Cl)Cl [DICHLORVOS]
Not Active: IC50 [1] | IC50 [2] | Ki [2] | IC50 [3] | IC50 [4] | Ki [4] | IC50 [5] | IC50 [6] | IC50 [7] | Ki [7] | IC50 [8] | Ki [8]

O=C(O)Cc1ccccc1Nc1c(Cl)cccc1Cl [DICLOFENAC]
Not Active: IC50 [1] | IC50 [2] | Ki [2] | IC50 [3] | IC50 [4] | Ki [4] | IC50 [5] | IC50 [6] | IC50 [7] | Ki [7] | IC50 [8] | Ki [8]

C[C@H]1O[C@@H](O[C@H]2[C@@H](O)C[C@H](O[C@H]3[C@@H](O)C[C@H](O[C@H]4CC[C@@]5(C)[C@H](CC[C@@H]6[C@@H]5CC[C@]5(C)[C@@H](C7=CC(=O)OC7)CC[C@]65O)C4)O[C@@H]3C)O[C@@H]2C)C[C@H](O)[C@@H]1O [DIGITOXIN]
Not Active: IC50 [1] | IC50 [2] | Ki [2] | IC50 [3] | IC50 [4] | Ki [4] | IC50 [5] | IC50 [6] | IC50 [7] | Ki [7] | IC50 [8] | Ki [8]

CCN1CC(CCN2CCOCC2)C(c2ccccc2)(c2ccccc2)C1=O (stereo unspecified) [DOXAPRAM]
Not Active: IC50 [1] | IC50 [2] | Ki [2] | IC50 [3] | IC50 [4] | Ki [4] | IC50 [5] | IC50 [6] | IC50 [7] | Ki [7] | IC50 [8] | Ki [8]

Cn1c(=O)c2c(ncn2CC2OCCO2)n(C)c1=O [DOXOFYLLINE]
Not Active: IC50 [1] | IC50 [2] | Ki [2] | IC50 [3] | IC50 [4] | Ki [4] | IC50 [5] | IC50 [6] | IC50 [7] | Ki [7] | IC50 [8] | Ki [8]

COc1cccc2c1C(=O)c1c(O)c3c(c(O)c1C2=O)C[C@@](O)(C(=O)CO)C[C@@H]3O[C@H]1C[C@H](N)[C@H](O)[C@H](C)O1 [DOXORUBICIN]
Not Active: IC50 [1] | IC50 [2] | Ki [2] | IC50 [3] | IC50 [4] | Ki [4] | IC50 [5] | IC50 [6] | IC50 [7] | Ki [7] | IC50 [8] | Ki [8]

COc1cccc2c1C(=O)c1c(O)c3c(c(O)c1C2=O)C[C@@](O)(C(=O)CO)C[C@@H]3O[C@H]1C[C@H](N)[C@@H](O)[C@H](C)O1 [EPIRUBICIN]
Not Active: IC50 [1] | IC50 [2] | Ki [2] | IC50 [3] | IC50 [4] | Ki [4] | IC50 [5] | IC50 [6] | IC50 [7] | Ki [7] | IC50 [8] | Ki [8]

C[C@]12CC[C@@H]3c4ccc(OC(=O)c5ccccc5)cc4CC[C@H]3[C@@H]1CC[C@@H]2O [ESTRADIOL BENZOATE]
Not Active: IC50 [1] | IC50 [2] | Ki [2] | IC50 [3] | IC50 [4] | Ki [4] | IC50 [5] | IC50 [6] | IC50 [7] | Ki [7] | IC50 [8] | Ki [8]

CC[C@@H](CO)NCCN[C@@H](CC)CO [ETHAMBUTOL]
Not Active: IC50 [1] | IC50 [2] | Ki [2] | IC50 [3] | IC50 [4] | Ki [4] | IC50 [5] | IC50 [6] | IC50 [7] | Ki [7] | IC50 [8] | Ki [8]

CC1(C)O[C@@H]2C[C@H]3[C@@H]4C[C@H](F)C5=CC(=O)C=C[C@]5(C)[C@H]4[C@@H](O)C[C@]3(C)[C@]2(C(=O)CO)O1 [FLUNISOLIDE]
Not Active: IC50 [1] | IC50 [2] | Ki [2] | IC50 [3] | IC50 [4] | Ki [4] | IC50 [5] | IC50 [6] | IC50 [7] | Ki [7] | IC50 [8] | Ki [8]

CC1(C)O[C@@H]2C[C@H]3[C@@H]4C[C@H](F)C5=CC(=O)C=C[C@]5(C)[C@@]4(F)[C@@H](O)C[C@]3(C)[C@]2(C(=O)CO)O1 [FLUOCINOLONE ACETONIDE]
Not Active: IC50 [1] | IC50 [2] | Ki [2] | IC50 [3] | IC50 [4] | Ki [4] | IC50 [5] | IC50 [6] | IC50 [7] | Ki [7] | IC50 [8] | Ki [8]

CC1(C)O[C@@H]2C[C@H]3[C@@H]4C[C@H](F)C5=CC(=O)CC[C@]5(C)[C@H]4[C@@H](O)C[C@]3(C)[C@]2(C(=O)CO)O1 [FLURANDRENOLIDE]
Not Active: IC50 [1] | IC50 [2] | Ki [2] | IC50 [3] | IC50 [4] | Ki [4] | IC50 [5] | IC50 [6] | IC50 [7] | Ki [7] | IC50 [8] | Ki [8]

CN(C)c1ccc(C(=C2C=CC(=[N+](C)C)C=C2)c2ccc(N(C)C)cc2)cc1.[Cl-] [GENTIAN VIOLET]
Not Active: IC50 [1] | IC50 [2] | Ki [2] | IC50 [3] | IC50 [4] | Ki [4] | IC50 [5] | IC50 [6] | IC50 [7] | Ki [7] | IC50 [8] | Ki [8]

Cc1ccc(S(=O)(=O)NC(=O)NN2CC3CCCC3C2)cc1 (stereo unspecified) [GLICLAZIDE]
Not Active: IC50 [1] | IC50 [2] | Ki [2] | IC50 [3] | IC50 [4] | Ki [4] | IC50 [5] | IC50 [6] | IC50 [7] | Ki [7] | IC50 [8] | Ki [8]

NC(=O)NO [HYDROXYUREA]
Not Active: IC50 [1] | IC50 [2] | Ki [2] | IC50 [3] | IC50 [4] | Ki [4] | IC50 [5] | IC50 [6] | IC50 [7] | Ki [7] | IC50 [8] | Ki [8]

CC(C)Cc1ccc(C(C)C(=O)O)cc1 (stereo unspecified) [IBUPROFEN]
Not Active: IC50 [1] | IC50 [2] | Ki [2] | IC50 [3] | IC50 [4] | Ki [4] | IC50 [5] | IC50 [6] | IC50 [7] | Ki [7] | IC50 [8] | Ki [8]

COc1ccc2c(c1)c(CC(=O)O)c(C)n2C(=O)c1ccc(Cl)cc1 [INDOMETHACIN]
Not Active: IC50 [1] | IC50 [2] | Ki [2] | IC50 [3] | IC50 [4] | Ki [4] | IC50 [5] | IC50 [6] | IC50 [7] | Ki [7] | IC50 [8] | Ki [8]

CCc1c2c(nc3ccc(OC(=O)N4CCC(N5CCCCC5)CC4)cc13)-c1cc3c(c(=O)n1C2)COC(=O)[C@]3(O)CC [IRINOTECAN]
Not Active: IC50 [1] | IC50 [2] | Ki [2] | IC50 [3] | IC50 [4] | Ki [4] | IC50 [5] | IC50 [6] | IC50 [7] | Ki [7] | IC50 [8] | Ki [8]

CC(C(=O)O)c1cccc(C(=O)c2ccccc2)c1 (stereo unspecified) [KETOPROFEN]
Not Active: IC50 [1] | IC50 [2] | Ki [2] | IC50 [3] | IC50 [4] | Ki [4] | IC50 [5] | IC50 [6] | IC50 [7] | Ki [7] | IC50 [8] | Ki [8]

Nc1ccn([C@@H]2CS[C@H](CO)O2)c(=O)n1 [LAMIVUDINE]
Not Active: IC50 [1] | IC50 [2] | Ki [2] | IC50 [3] | IC50 [4] | Ki [4] | IC50 [5] | IC50 [6] | IC50 [7] | Ki [7] | IC50 [8] | Ki [8]

O=S(=O)([O-])CCS.[Na+] [MESNA]
Not Active: IC50 [1] | IC50 [2] | Ki [2] | IC50 [3] | IC50 [4] | Ki [4] | IC50 [5] | IC50 [6] | IC50 [7] | Ki [7] | IC50 [8] | Ki [8]
